Patent US10688099B2, “Methods for modulating the amount of RNA transcripts” (PTC Therapeutics, Inc., priority 2013, dated 2020)

System: RNA isoforms in PNN 1-46 SMA type I patient-derived fibroblasts
Test: RNA Abundance Modulation (RNA isoform abundance, iFPM, HiSeq RNA sequencing)
Type: cell-based, human
Conditions: 24 hrs, PNN 1-46 fibroblasts
Experimental: Cells from a cell line of interest are cultured in conditions sufficient to yield the number of cells capable of generating enough RNA for subsequent sequencing steps. Cells from the tested cell line are contacted with a compound described herein.
To culture said cells, they are seeded, at appropriate concentrations in a volume of media in a cell culture container and incubated for 4, 5, 6, 7, 8, 9, 10, or more hours. A concentrated solution of compound in a vehicle (e.g., DMSO) is then added in sufficient volume to result in the intended final concentration of the compound, for example 100 nM, 500 nM, 1 μM, 5 μM, 10 μM, 15 μM, 20 μM, or more. The cells may also be treated with vehicle alone, as a control. A number of replicates of each concentration or control may be made (e.g., 2 replicates). The cells are then incubated at a constant temperature appropriate for cell culture of the particular cell line (e.g., 37° C.) for 6, 12, 18, 24, 48, or more hours. After incubation, the growth medium is removed and the cells are washed with the appropriate buffer (e.g., PBS). Cells are then removed from adherence to the cell culture container by treatment with a solution containing trypsin, and the trypsin subsequently quenched with the appropriate volume of buffer (e.g., DMEM-FBS). The cells are then pelleted with gentle centrifugation (e.g., ≤90×g centrifugal force) and resuspended in a buffer to lyse the cells for extraction of RNA. The cell lysates may then be frozen (e.g., at −80° C.) or, alternately, may immediately be used in a procedure to purify the RNA (e.g. by use of the RNEASY PLUS® minikit). The RNA from cell lysates is eluted in the appropriate volume of buffer (e.g., RNEASE-FREE H2O®). The resulting purified RNA may then be sequenced (e.g., using RNASeq) or analyzed using a human exon array (e.g., by GENECHIP® human exon array) to determine changes in the RNA levels in those cells treated with compound compared to those cells treated only with DMSO. The purified RNA may also be quantified by other methods known in the art.
Using the RNA data obtained from sequencing, exon array, or other methods, a statistical analysis can reveal changes in the RNA levels of compound-treated compared with control. For example, t-test p-values may be calculated for the data obtained through sequencing and exon array methods in order to compare compound-treated cells to those treated with the DMSO control. […] Analysis of the sequencing and exon array data may then also yield predictions about the cause of the aberrant amount of an RNA transcript in the cells (e.g., perturbation of RNA splicing, RNA transcription, or RNA stability). These predictions may be further confirmed by methods known in the art. For example, RT-PCR and RT-qPCR may be used to confirm the change in amount of RNA transcripts for one or more particular transcripts of interest.
Following the methods described above in Example 1, PNN 1-46 SMA type I patient-derived fibroblasts were treated with 300 nM or 3 μM Compounds 774 and 808 in 0.5% DMSO.
700,000 cells were seeded in 10 mL of medium (DMEM plus 10% FBS) in a T-75 flask. Cells were allowed to attach for at least 4 hrs, after which 50 μL of a 200× compound solution (100% DMSO) was added to each well, and the plate was incubated at 37° C. for 24 hrs.
At the end of the incubation period, the supernatant was removed and the cells where washed with PBS. TrypLE (Invitrogen) express solution was added (e.g. 1.5 mL per one T75 flask). The flasks were incubated for 3 to 5 min at 37° C. The trypsin was then quenched, e.g., by adding 10 mL DMEM-FBS.
Next, the cells were pelleted using gentle centrifugation without exceeding 90×g centrifugal force. The supernatant was removed and the cell pellet was re-suspended in 600 μL RLT buffer (the RLT buffer was supplemented with beta-mercaptoethanol according to the RNeasy protocol manual) by pipetting up and down until the pellet was completely dissolved […]

Cc1cn2cc(-c3cc(=O)n4cc(N5CCN(C)CC5)ccc4n3)cc(C)c2n1 [Compound 808]
RNA abundance modulation (effect on isoform fold increase) (0.3 μM): modulates RNA abundance
RNA abundance modulation (effect on isoform fold increase) (3 μM): modulates RNA abundance
